From patent publication US8283521B2, “Transcription factor gene induced by water deficit conditions and abscisic acid from Helianthus annuus, promoter and transgenic plants” (Bioceres S.A., priority 2003, dated 2012)

Key:
Hahb-4 [1] = assay: Time dependence of the response of Hahb-4 to ABA by Northern analysis; assay type: in vivo, Helianthus annuus; conditions: 100 μM ABA
Description: Total RNA (20 μg) was isolated from seedlings that were either untreated, or treated with 100 μM ABA for different times as indicated in each lane. In the lower panel, the same filter was hybridized with an rRNA probe as a control for RNA loading and transfer.
The high level of induction observed under water stress conditions allowed us to analyze the time-dependent increase in transcript levels by Northern experiments. […] After this time, no further increments in Hahb-4 transcript levels were observed. Re-hydration of the seedlings lowered Hahb-4 transcript levels more slowly, with only about a 50% decrease after 2 h (FIG. 3, lanes 4 and 5). The effect of ABA treatment was also time dependent. […] The high Hahb-4 transcript levels of the invention are reverted after the re-hydration of the sunflower plants, thus indicating again that said gene participates in the response to the water stress.
Total RNA (20 μg) was denatured with formamide and formaldehyde, separated in a 1.5% (w/v) agarose/6% formaldehyde gel, and blotted onto nylon membranes (Hybond N; Amersham-Pharmacia, Buckinghamshire, UK) essentially as described by Sambrook, Fritsch & Maniatis (1989).
Hybridization was performed overnight at 65° C. in 6×SSC (1×SSC is 0.15 M NaCl, 0.015 M Na3-citrate, pH 7.0), 0.1% (w/v) polyvinylpirrolidone, 0.1% (w/v) bovine serum albumin, 0.1% (w/v) Ficoll, 0.5% (w/v) sodium dodecyl sulphate (SDS). […] The filters were autoradiographed using Bio-Max films and transcreen (Eastman Kodak, Rochester, N.Y., USA) overnight. To check the amount of total RNA loaded in each lane, filters were then re-probed with a 25S rRNA from Vicia faba under similar conditions as those described above, except that hybridization was performed at 62° C.

Hahb-4 [2] = assay: Hahb-4 expression in treated sunflower seedlings by RNAse protection; assay type: in vivo, Helianthus annuus
Source text: We have analyzed the expression of Hahb-4 under different environmental conditions (i.e. water, osmotic, salt, cold, heat, and oxidative stress) by RNAse protection, which is more sensitive than the Northern technique (FIG. 2).
As many responses to water stress are mediated by ABA, we have also analyzed the effect of this hormone on the expression.
Helianthus annuus L. (sunflower cv. contiflor 15, from Zeneca, Balcarce, Argentina, or cv. Sunweed, from Rhône-Poulenc, Lyon, France) seeds were surface sterilized and grown on filter paper inside Petri dishes for a period of 4 d. Seedlings were then transferred to plastic supports containing Hoagland's medium and grown until they had six leaves (approximately 3 weeks). Water stress was imposed either by transferring 4-day-old-seedlings to Petri dishes with dry filter paper or by removing plants from the hydroponic culture.
For RNAse protection analysis, total RNA (15 μg) prepared as described (Almoguera C., et. al.; Plant molecular Biology 19: 781-792, 1992) was hybridized to a specific Hahb-4 riboprobe synthesized by in vitro transcription using T3 RNA polymerase and [^32P]CTP following the instructions of the manufacturer (Boehringer Mannheim, Mannheim, Germany). The template consisted of an insert corresponding to the coding region between +81 and +429 (FIG. 1 and SEQ ID NO 1) cloned into the SpeI/BamHI sites of pBlue-script SK^−. The BamHI site, not present in the cDNA, derives from amplification with oligonucleotide H41 as described above. Restriction digestion of this template DNA with EcoRI allows transcription of a 411-nucleotide RNA probe that contains 63 nucleotides from the vector (from the T3 promoter to the SpeI site in the polylinker, and from the BamHI to the EcoRI sites). Conditions for riboprobe preparation, hybridization, digestion with RNAse A, and subsequent electrophoretic analysis of protected RNA fragments were as previously described (Coca M: A: et. al.; Plant Molecular Biology 31: 863-876, 1996, herein incorporated as reference).

[3] = system: 5′-CAAT(A/T)ATTG-3′ DNA sequence; assay: Electrophoretic mobility shift assay with nuclear extracts of treated seedlings; assay type: binding, Helianthus annuus; conditions: nuclear extracts from ABA-treated 4-day-old seedlings
Description: The presence of functional DNA binding proteins in sunflower nuclei was analyzed by electrophoretic mobility shift assays using a synthetic double-stranded oligonucleotide comprising the sequence 5′-CAAT(A/T)ATTG-3′ (SEQ ID NO:23) bound in vitro by Hahb-4 expressed in bacteria. […] On the contrary, only the slower-migrating complex increased when plants were subjected to water stress. Formation of both complexes was almost completely abolished by an excess of the same unlabelled DNA, but not by an equivalent amount of a similar DNA containing the sequence 5′-CACT(A/T)AGTG-3′ (SEQ ID NO:31) (changed positions underlined) not bound by Hahb-4 (FIG. 6).
Sunflower nuclei and nuclear extracts were prepared from control, water-stressed, or ABA-treated seedlings (4-days-old) according to the technique described in Maliga et al. (Methods in Plant Molecular Biology. A Laboratory Course Manual, pages 233-260. Cold Spring Harbor Laboratory Press, Cold Spring Harbor, N.Y., USA, 1995, herein incorporated by reference). Protein patterns were analyzed by SDS-polyacryla-mide gel electrophoresis (PAGE) and total protein concentration was measured as described Sedmak J. et. al., Analytical Biochemistry 79: 544-552, 1977. […]

Arabidopsis thaliana = assay: Germination in the presence of mannitol or NaCl; assay type: in vivo; conditions: 50, 200, 300 mM mannitol
Description: First, the germination process, under conditions imitating the lack of water, such as presence of mannitol, and other conditions generating salt stress, was analyzed. FIGS. 11, 12 and 13 show the germination times of plants transformed according to the invention as compared to control ones. […] This effect is more remarked at higher concentrations of the carbohydrate.
When the germination tests were carried out in the presence of different concentrations of NaCl the obtained results were similar as in the case of mannitol.
The seeds from Arabidopsis thaliana were sterilized by washing with ethanol 70% (v/v) (1 min), chlorine 5%-SDS 1% (15 min) and sterile distilled water (3 times). Then the seeds were suspended in 8 ml of agar 0.1% and sowed in 150 mm Petri plates containing MS medium, with the addition of Gamborg's vitamins. The plates were maintained at 4° C. during two days and then placed into a culture chamber with controlled light and temperature (16 hours light at 24° C. and 8 hours darkness at 21° C.). The required illumination conditions (150-200 μE/m 2) were artificially obtained by keeping the plants at a distance of 25 cm from six fluorescent tubes, intercalating white light and Grolux tubes (from Sylvania) adjacently located.

| SMILES | Hahb-4 transcript levels after 24 h of treatment (Hahb-4 [1]; 24 h) | time of maximum response of Hahb-4 to ABA (Hahb-4 [1]; seedlings) [h] | time until response of Hahb-4 to ABA is detectable (Hahb-4 [1]; seedlings) [h] | Hahb-4 transcript levels (Hahb-4 [2]; 10 μM ABA) | Hahb-4 expression (Hahb-4 [2]; 100 μM ABA, 24 h, irrigated 4-day-old seedlings) | amount of both protein complexes binding the Hahb-4 target sequence [3] | Hahb-4 expression (Hahb-4 [2]; 0.5 M mannitol during 4 h, 4-day-old seedlings) | effect of mannitol on germination (Arabidopsis thaliana) |
| --- | --- | --- | --- | --- | --- | --- | --- | --- |
| CC1=CC(=O)CC(C)(C)[C@@]1(O)/C=C/C(C)=C\C(=O)O [ABA, abscisic acid] | still significantly high | 3 to 6 | ≤ 1 | smaller, but significant increase in transcript levels | induction was observed | significantly increased |  |  |
| OC[C@@H](O)[C@@H](O)[C@H](O)[C@H](O)CO [Mannitol, mannitol] |  |  |  |  |  |  | induced Hahb-4 expression, although at lower levels | delays the germination |
